Data as given in patent US5856529A, “Benzofuran and dihydrobenzofuran melatonergic agents” (Bristol-Myers Squibb Company, priority 1997, dated 1999).

Each molecule was assayed against T1, ML1a human melatonin receptor (Homo sapiens, UniProt P48039) (assay: Melatonergic Receptor Binding Activity (2-[125I]-iodomelatonin, membranes of NIH-3T3 cells expressing ML1a receptor)). Settings: 37° C. for 1 hour, read-out: Melatonin Binding Affinity (IC50).
T1 construct: expressed in transfected cells
Description: Melatonergic Receptor Binding Activity
(a) TME=50 mM Tris buffer containing 12.5 mM MgCl2, and 2 mM EDTA, pH 7.4 at 37° C. with concentrated HCl.
(b) Wash buffer: 20 mM Tris base containing 2 mM MgCl2, pH 7.4 at room temperature.
(c) 10^-4 M melatonin (10^-5 M final concentration).
(d) 2-[^125 I]-iodomelatonin, […] final concentration
The melatonin ML1a receptor cDNA was subcloned into pcDNA3 and introduced into NIH-3T3 cells using Lipofectamine. Transformed NIH-3T3 cells resistant to geneticin (G-418) were isolated, and single colonies expressing high levels of 2[^125 I]-iodomelatonin binding were isolated. Cells are maintained in DMEM supplemented with 10% calf serum and G-418 (0.5 g/liter). Cells are grown to confluency in T-175 flasks, scraped using Hank's balanced salt solution, and frozen at -80° C. For preparing membrane homogenates, pellets are thawed on ice, and resuspended in TME buffer in the presence of 10 μg/ml aprotinin and leupeptin, and 100 μM phenylmethylsulfonylfluoride. The cells were then homogenized using a dounce homogenizer, and centrifuged. The resulting pellet was resuspended with dounce homogenizer in TME (supplemented with the above protease inhibitors) and frozen. On the day of assay, the small aliquot was thawed on ice and resuspended in ice cold TME (1:50-1:100 v/v) and held on ice until assayed.
3. Incubation: 37° C. for 1 hour. Reaction is terminated by filtration. Filters are washed 3 times.

T1 sequence (P48039 whole entry): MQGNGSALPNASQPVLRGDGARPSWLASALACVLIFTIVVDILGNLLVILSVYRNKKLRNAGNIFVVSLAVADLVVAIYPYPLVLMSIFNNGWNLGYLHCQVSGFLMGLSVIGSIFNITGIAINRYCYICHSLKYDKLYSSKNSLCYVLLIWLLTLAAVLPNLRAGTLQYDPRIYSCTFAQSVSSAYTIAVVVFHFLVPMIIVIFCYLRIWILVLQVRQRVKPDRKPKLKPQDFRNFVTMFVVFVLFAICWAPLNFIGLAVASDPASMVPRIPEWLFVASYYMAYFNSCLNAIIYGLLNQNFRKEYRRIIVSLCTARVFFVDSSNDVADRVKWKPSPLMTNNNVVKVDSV

SMILES | IC50 [nM]
CC(=O)NC[C@@H]1C[C@H]1c1cccc2c1OCO2 (relative stereo) [Example 3, (trans)-N-[[2-(1,3-benzodioxol-4-yl)cycloprop-1-yl]methyl]acetamide] | < 10
CC(C)C(=O)NC[C@@H]1C[C@H]1c1cccc2c1OCO2 (relative stereo) [Example 11, (trans)-N-[[2-(1,3-benzodioxol-4-yl)cycloprop-1-yl]methyl]-2-methylpropanamide] | 10 to 100
O=C(NC[C@@H]1C[C@H]1c1cccc2c1OCCO2)C1CC1 (relative stereo) [Example 18, (trans)-N-[[2-(2,3-dihydro-1,^4-benzodioxin-5-yl)cycloprop-1-yl]-methyl]cyclopropane carboxamide] | 10 to 100
CCC(=O)NC[C@@H]1C[C@H]1c1cccc2occc12 (relative stereo) [Example 23, (trans)-N-[[2-(benzofuran-4-yl)cycloprop-1-yl]methyl]propanamide] | < 10
CC(=O)NC[C@@H]1C[C@H]1c1cccc2c1OCCCO2 (relative stereo) [Example 60] | 10 to 100
O=C(NC[C@@H]1C[C@H]1c1cccc2c1OCC2)C1CC1 (relative stereo) [Example 67] | 10 to 100
CCCC(=O)NC[C@@H]1C[C@H]1c1cccc2oc(C)cc12 (relative stereo) [Example 76, (trans)-N-[[2-(2-methyl-benzofuran-4-yl)cycloprop-1-yl]methyl]-butanamide] | < 10
O=C(NC[C@@H]1C[C@H]1c1cccc2ccoc12)C1CC1 (relative stereo) [Example 80, (trans)-N-[[2-(benzofuran-7-yl)cycloprop-1-yl]methyl]-cyclopropanecarboxamide] | 10 to 100
C=CC(=O)NC[C@@H]1C[C@H]1c1cccc2c1OCCO2 (single isomer, unassigned) [Example 52] | < 10
O=C(NC[C@@H]1C[C@H]1c1cccc2c1OCCO2)C(F)(F)F (single isomer, unassigned) [Example 54, (-)-(trans)-N-[[2-(2,3-dihydro-1,4-benzodioxin-5-yl)cycloprop-1-yl]methyl]trifluoroacetamide] | < 10
CCC(=O)NC[C@@H]1C[C@H]1c1cccc2c1CC(C)O2 (single isomer, unassigned; (+)) [Example 82, (+)-(trans)-N-[[2-(2-methyl-2,3-dihydrobenzofuran-4-yl)cycloprop-1-yl]methyl]propanamide] | < 10
CCC(=O)NCC1C(c2cccc3oc(C)cc23)C1(F)F (stereo not shown) [Example 95, N-[[2-(2-Methyl-4-benzofuranyl)-3,3-difluorocyclopropanyl]-methyl]propanamide] | 10 to 100

Results, then the molecule that gave them:

IC50 [nM] | SMILES
< 10 | CCC(=O)NC[C@@H]1C[C@H]1c1cccc2c1CCO2 (relative stereo) [Example 29, (trans)-N-[[2-(2,3-dihydrobenzofuran-4-yl)cycloprop-1-yl]methyl] propanamide]
< 10 | CCCC(=O)NC[C@@H]1C[C@H]1c1cccc2c1CCO2 (relative stereo) [Example 30, (trans)-N-[[2-(2,3-dihydrobenzofuran-4-yl)cycloprop-1-yl]methyl] butanamide]
100 to 250 | CCC(=O)NC[C@@H]1C[C@H]1c1cccc2c1CCCCO2 (relative stereo) [Example 61]
< 10 | CCC(=O)NC[C@@H]1C[C@H]1c1cccc2c1CCO2 (single isomer, unassigned) [Example 2, (-)-(trans)-N-[[2-(2,3-Dihydrobenzofuran-4-yl)cycloprop-1-yl]methyl]propanamide]
10 to 100 | CCC(=O)NC[C@@H]1C[C@H]1c1cccc2c1CCCO2 (single isomer, unassigned) [Example 42, (-)-(trans)-N-[[2-(3,4-dihydro-2H-1-benzopyran-5-yl)cycloprop-1-yl]methyl]propanamide]
< 10 | CCC(=O)NC[C@@H]1C[C@H]1c1cccc2c1CCCO2 (single isomer, unassigned) [Example 96, (+)-(trans)-N-[[2-(3,4-dihydro-2H-1-benzopyran-5-yl)cycloprop-1-yl]methyl]propanamide]
< 10 | CCC(=O)NC[C@@H]1C[C@H]1c1cccc2c1CC(C)O2 (single isomer, unassigned; (-)) [Example 88, (-)-(trans)-N-[[^2-(2-methyl-2,3-dihydrobenzofuran-4-yl)cycloprop-1-yl]methyl]propanamide]
